# Experimental data: article PMC10398685 (ACS Omega, 2023)
# Like-named read-outs stand apart in the source and are kept apart here.
# How the values were obtained:
# [1] = biological target: SARS-CoV-2 nsp14 7-N MTase (Severe acute respiratory syndrome coronavirus 2, UniProt P0DTD1); assay: biochemical; details: Echo MS assay, 20 nM nsp14, 4 μM SAM, 4 μM GpppA, duplicates
# SARS-CoV-2 [2] = assay: microbe, parasite or virus in culture; format: cell-based; details: Severe acute respiratory syndrome coronavirus 2, 72 h; Calu-3 cells, MOI~0.03, 3 days incubation, CPE by XTT; read-out: EC50 (anti-SARS-CoV-2 activity)
# SARS-CoV-2 [3] = assay: microbe, parasite or virus in culture; format: cell-based; details: Severe acute respiratory syndrome coronavirus 2, Vero C1008, 72 h; VeroE6 cells, MOI~0.03, 3 days incubation, CPE by XTT; read-out: EC50 (anti-SARS-CoV-2 activity)
# in vitro [4] = details: human
# in vitro [5] = details: African green monkey
# [6] = Cytotoxicity (XTT) in Calu-3 cells; details: human
# [7] = Cytotoxicity (XTT) in Vero E6 cells; details: African green monkey
# [8] = in the same cell type; cited from earlier work
Compound,IC50 [1],EC50 (SARS-CoV-2 [2]),EC50 (SARS-CoV-2 [3]),CC50 at 3 days (in vitro [4]),CC50 at 3 days (in vitro [5]),CC50 at 3 days [6],CC50 at 3 days [7],"Reported intracellular uptake, free tenofovir [8]","Reported intracellular uptake, prodrug [8]"
CCN(C[C@H]1O[C@@H](n2cc(C#Cc3ccccc3)c3c(N)ncnc32)[C@H](O)[C@@H]1O)S(=O)(=O)c1ccc(OC)c(C#N)c1 [Compound 12c],0.062 ± 0.0124 µM,> 100 µM,> 100 µM,> 100 µM,> 100 µM,–,–,–,–
CCN(C[C@H]1O[C@@H](n2cc(C#Cc3ccncc3)c3c(N)ncnc32)[C@H](O)[C@@H]1O)S(=O)(=O)c1ccc(OC)c(C#N)c1 [Compound 12n],0.041 ± 0.0071 µM,> 100 µM,> 100 µM,> 100 µM,> 100 µM,–,–,–,–
CCN(C[C@H]1O[C@@H](n2cc(C#Cc3cnc(N)nc3)c3c(N)ncnc32)[C@H](O)[C@@H]1O)S(=O)(=O)c1ccc(OC)c(C#N)c1 [Compound 12i],0.038 ± 0.0042 µM,> 100 µM,> 100 µM,> 100 µM,> 100 µM,–,–,–,–
CCN(C[C@H]1O[C@@H](n2cc(C#Cc3c[nH]c(=O)[nH]c3=O)c3c(N)ncnc32)[C@H](O)[C@@H]1O)S(=O)(=O)c1ccc(OC)c(C#N)c1 [Compound 12j],0.07 ± 0.0081 µM,> 100 µM,> 100 µM,> 100 µM,> 100 µM,–,–,–,–
COc1ccc(S(=O)(=O)N(C[C@H]2O[C@@H](n3cnc4c(N)ncnc43)[C@H](O)[C@@H]2O)C(C)C)cc1C#N [Compound 3c],0.624 ± 0.0891 µM,–,–,–,–,–,–,–,–
"CCN(C[C@H]1O[C@@H](n2cnc3c(N)ncnc32)[C@H](O)[C@@H]1O)S(=O)(=O)c1ccc(OC)c(C#N)c1 [Compound 3a, reference compound]",0.195 ± 0.0253 µM,> 100 µM,> 100 µM,> 100 µM,> 100 µM,–,–,–,–
CCN(C[C@H]1O[C@@H](n2cc(C#Cc3c[nH]c(=O)nc3N)c3c(N)ncnc32)[C@H](O)[C@@H]1O)S(=O)(=O)c1ccc(OC)c(C#N)c1 [Compound 12k],0.088 ± 0.0112 µM,> 100 µM,> 100 µM,> 100 µM,> 100 µM,–,–,–,–
"CCC(CC)COC(=O)[C@H](C)N[P@](=O)(OC[C@H]1O[C@@](C#N)(c2ccc3c(N)ncnn23)[C@H](O)[C@@H]1O)Oc1ccccc1 [Remdesivir, reference compound]",–,0.26 µM,1.2 µM,–,–,> 50 µM,> 50 µM,–,–
CCN(C[C@H]1O[C@@H](n2cc(C#Cc3cnc(O)nc3)c3c(N)ncnc32)[C@H](O)[C@@H]1O)S(=O)(=O)c1ccc(OC)c(C#N)c1 [Compound 12g],0.075 ± 0.0083 µM,> 100 µM,> 100 µM,> 100 µM,> 100 µM,–,–,–,–
CCN(C[C@H]1O[C@@H](n2cc(C#Cc3ccc(C(=O)O)cc3)c3c(N)ncnc32)[C@H](O)[C@@H]1O)S(=O)(=O)c1ccc(OC)c(C#N)c1 [Compound 12p],0.084 ± 0.0094 µM,> 100 µM,> 100 µM,> 100 µM,> 100 µM,–,–,–,–
"Nc1ncnc2c1c(C#Cc1cnc3ccccc3c1)cn2[C@@H]1O[C@H](CSCC[C@H](N)C(=O)O)[C@@H](O)[C@H]1O [TO507, reference compound]",0.068 ± 0.0121 µM,> 100 µM,> 100 µM,> 100 µM,> 100 µM,–,–,–,–
COc1ccc(S(=O)(=O)N(C)C[C@H]2O[C@@H](n3cnc4c(N)ncnc43)[C@H](O)[C@@H]2O)cc1C#N [Compound 3b],0.128 ± 0.0144 µM,–,–,–,–,–,–,–,–
CCN(C[C@H]1O[C@@H](n2cc(C#Cc3ccc(O)nc3)c3c(N)ncnc32)[C@H](O)[C@@H]1O)S(=O)(=O)c1ccc(OC)c(C#N)c1 [Compound 12f],0.065 ± 0.0092 µM,> 100 µM,> 100 µM,> 100 µM,> 100 µM,–,–,–,–
CCN(C[C@H]1O[C@@H](n2cc(C#Cc3cccc4ccccc34)c3c(N)ncnc32)[C@H](O)[C@@H]1O)S(=O)(=O)c1ccc(OC)c(C#N)c1 [Compound 12d],0.261 ± 0.0516 µM,> 100 µM,> 100 µM,> 100 µM,> 100 µM,–,–,–,–
CC(C)OC(=O)[C@H](C)N[P@](=O)(CO[C@H](C)Cn1cnc2c(N)ncnc21)Oc1ccccc1 [tenofovir alafenamide],–,–,–,–,–,–,–,67 µM,0.9 µM
CCN(C[C@H]1O[C@@H](n2cc(C#Cc3cncnc3)c3c(N)ncnc32)[C@H](O)[C@@H]1O)S(=O)(=O)c1ccc(OC)c(C#N)c1 [Compound 12m],0.051 ± 0.0062 µM,> 100 µM,> 100 µM,> 100 µM,> 100 µM,–,–,–,–
COc1ccc(S(=O)(=O)N(C[C@H]2O[C@@H](n3cnc4c(N)ncnc43)[C@H](O)[C@@H]2O)C2CCCC2)cc1C#N [Compound 3d],2.38 ± 0.278 µM,–,–,–,–,–,–,–,–
CCN(C[C@H]1O[C@@H](n2cc(C#Cc3ncc[nH]3)c3c(N)ncnc32)[C@H](O)[C@@H]1O)S(=O)(=O)c1ccc(OC)c(C#N)c1 [Compound 12b],0.034 ± 0.0049 µM,> 100 µM,> 100 µM,> 100 µM,> 100 µM,–,–,–,–
